Data reported in patent US11214803B2, “Modulators of YAP1 expression” (Ionis Pharmaceuticals, Inc., priority 2019, dated 2022).
Strand notation (5' to 3'): a small letter for the sugar, then the base; units joined by * are phosphorothioate-linked, units joined directly phosphodiester-linked; [ ] holds rarer units or linkages, { } end groups; capitals alone tell only the bases. k = constrained ethyl (cEt); [5mC] = 5-methylcytosine; d = 2'-deoxy (DNA)

Tests used:
[1] = system: NCI H292 cells; assay: Cell proliferation assay in NCI H292 cells, CellTiter-Glo (Example 32); assay type: cell-based, human; settings: free uptake, approximately 144 hours
Protocol: Modified oligonucleotides described in the studies above were tested at various doses in mucoepidermoid pulmonary carcinoma cell line […]. A control oligonucleotide 792169 was also tested.
(§1) Cultured NCI H292 cells at a density of 1000 cells/well were treated using free uptake with modified oligonucleotides diluted to concentrations described in the tables below. After approximately 144 hours, cell proliferation was measured using the luminescent cell viability CellTiter-Glo® 2.0 Assay (Promega). Results are presented in the tables below as percent control of the amount of luminescence in samples treated with modified oligonucleotides relative to untreated control cells (% UTC).

[2] = system: Yap1 mRNA; assay: Yap1 mRNA in SCC-4 cells, RNA analysis (Example 39); assay type: cell-based, human; settings: free uptake, approximately 48 hours
Protocol: (§2) Modified oligonucleotides described in the studies above were tested at various doses in tongue squamous cell carcinoma cell line SCC 4. A control oligonucleotide 792169, described herein above, was also tested.
(§3) Cultured SCC-4 cells at a density of 5000 cells per well were treated using free uptake with modified oligonucleotides diluted to concentrations described in the tables below. After approximately 48 hours, Yap1 mRNA levels were measured as previously described using the Human Yap1 primer-probe set RTS4814. Yap1 mRNA levels were normalized to actin-beta content, as measured by primer probe set RTS5002. Results are presented in the tables below as percent control of the amount of Yap1 mRNA relative to untreated control cells (% UTC).

[3] = system: SCC-4 cells; assay: Cell proliferation assay in SCC-4 cells, CellTiter-Glo (Example 39); assay type: cell-based, human; settings: free uptake, approximately 144 hours
Protocol: as §2
as §1, with “SCC-4” for “NCI H292”

[4] = system: Yap1 mRNA; assay: Yap1 mRNA in SNU-1214 cells, RNA analysis (Example 46); assay type: cell-based, human; settings: free uptake, approximately 48 hours
Protocol: (§4) Modified oligonucleotides described in the studies above were tested at various doses in laryngeal squamous cell carcinoma cell line […]. A control oligonucleotide 792169, described herein above, was also tested.
as §3, with “SNU-1214” for “SCC-4”

[5] = system: SNU-1214 cells; assay: Cell proliferation assay in SNU-1214 cells, CellTiter-Glo (Example 46); assay type: cell-based, human; settings: free uptake, approximately 144 hours
Protocol: as §4
as §1, with “SNU-1214” for “NCI H292”

[6] = system: UPCI:SCC090 cells; assay: Cell proliferation assay in UPCI:SCC090 cells, CellTiter-Glo (Example 47); assay type: cell-based, human; settings: free uptake, approximately 144 hours
Protocol: Modified oligonucleotides described in the studies above were tested at various doses in tongue squamous cell carcinoma cell line UPCI:SCC090. A control oligonucleotide 792169, described herein above, was also tested.
as §1, with “UPCI:SCC090” for “NCI H292”

[7] = system: Yap1 mRNA; assay: Yap1 mRNA levels in CAL33 xenograft tumors (Example 29); assay type: in vivo, human; settings: CAL33 xenografts, 50 mg/kg twice weekly for two weeks, relative to PBS treated animals
Protocol: (§5) A xenograft tumor model was used to evaluate activity of modified oligonucleotides targeted to human Yap1. One million CAL33 cells in 30% matrigel were implanted subcutaneously into the flanks of female CrTac:NCr-Foxnlnu (Taconic) mice. When tumors reached an average volume of 100 mm^3, approximately two weeks post-implantation, groups of eight mice were administered at 50 mg/kg twice weekly with modified oligonucleotides for two weeks. ION 792169 was administered as a control.
Tumor samples were collected for measurement of Yap1 mRNA levels by RT-qPCR. Yap1 mRNA levels were measured as previously described using the Human Yap1 primer-probe set RTS4814. Yap1 mRNA levels were normalized to actin-beta content, as measured by primer probe set RTS5002. Results are presented in the tables below as percent control of the amount of Yap1 mRNA relative to PBS treated animals (% control).

[8] = system: CAL33 xenograft tumor; assay: Tumor volume and tumor weight in CAL33 xenograft tumor model (Example 29); assay type: in vivo, human; settings: 50 mg/kg twice weekly for two weeks; for Average Tumor weight: CAL33 xenograft mice, end of study; for Average Tumor Volume: CAL33 xenografts
Protocol: as §5
Tumor volume was measured at the indicated days in the table below. Tumor weight was determined at end of study. Mice were sacrificed when tumors from PBS-treated mice reached 2,000 mm3.

Substance	Antiproliferative effect (cell proliferation, luminescence) ([1]; 0.04 μM) [% UTC]	Antiproliferative effect (cell proliferation, luminescence) ([1]; 0.2 μM) [% UTC]	Antiproliferative effect (cell proliferation, luminescence) ([1]; 1 μM) [% UTC]	Antiproliferative effect (cell proliferation, luminescence) ([1]; 5 μM) [% UTC]	human Yap1 mRNA expression ([2]; 0.04 μM) [% UTC]	human Yap1 mRNA expression ([2]; 0.2 μM) [% UTC]	human Yap1 mRNA expression ([2]; 1 μM) [% UTC]	human Yap1 mRNA expression ([2]; 5 μM) [% UTC]	Antiproliferative effect (cell proliferation, luminescence) ([3]; 0.04 μM) [% UTC]	Antiproliferative effect (cell proliferation, luminescence) ([3]; 0.2 μM) [% UTC]	Antiproliferative effect (cell proliferation, luminescence) ([3]; 1 μM) [% UTC]	Antiproliferative effect (cell proliferation, luminescence) ([3]; 5 μM) [% UTC]	human Yap1 mRNA expression ([4]; 0.04 μM) [% UTC]	human Yap1 mRNA expression ([4]; 0.2 μM) [% UTC]	human Yap1 mRNA expression ([4]; 1 μM) [% UTC]	human Yap1 mRNA expression ([4]; 5 μM) [% UTC]	Antiproliferative effect (cell proliferation, luminescence) ([5]; 0.04 μM) [% UTC]	Antiproliferative effect (cell proliferation, luminescence) ([5]; 0.2 μM) [% UTC]	Antiproliferative effect (cell proliferation, luminescence) ([5]; 1 μM) [% UTC]	Antiproliferative effect (cell proliferation, luminescence) ([5]; 5 μM) [% UTC]	also measured
715487 (kA*kT*kT*dA*d[5mC]*dT*dT*d[5mC]*dA*dT*dA*dG*d[5mC]*kT*kT*kA) [compound 715487]	87	90	69	20	81	46	23	13	158	121	106	69	71	36	16	9	93	69	52	38	Antiproliferative effect (cell proliferation, luminescence) ([6]; 0.04 μM): 92 % UTC; Antiproliferative effect (cell proliferation, luminescence) ([6]; 0.2 μM): 94 % UTC; Antiproliferative effect (cell proliferation, luminescence) ([6]; 1 μM): 72 % UTC; Antiproliferative effect (cell proliferation, luminescence) ([6]; 5 μM): 68 % UTC
1198440 (AAGTGTATGTCAGAAG; cEt, 2'-MOE, 5-methylcytosine, phosphorothioate modifications, further chemistry not given here) [compound 1198440]	100	83	30	15	63	27	11	5	82	60	21	11	40	11	4	3	84	72	53	49	Yap1 mRNA levels in tumors, % control [7]: 12 % control; Average Tumor weight [8]: 0.36 g; Average Tumor Volume ([8]; day 10 post-implantation): 115 mm^3; Average Tumor Volume ([8]; day 13 post-implantation): 279 mm^3; Average Tumor Volume ([8]; day 17 post-implantation): 376 mm^3; Average Tumor Volume ([8]; day 21 post-implantation): 574 mm^3; Average Tumor Volume ([8]; day 24 post-implantation): 651 mm^3; Average Tumor Volume ([8]; day 27 post-implantation): 818 mm^3; Average Tumor Volume ([8]; day 31 post-implantation): 888 mm^3; Average Tumor Volume ([8]; day 34 post-implantation): 857 mm^3; Average Tumor Volume ([8]; day 38 post-implantation): 770 mm^3; Average Tumor Volume ([8]; day 40 post-implantation): 746 mm^3; Average Tumor Volume ([8]; day 44 post-implantation): 834 mm^3; Antiproliferative effect (cell proliferation, luminescence) ([6]; 0.04 μM): 101 % UTC; Antiproliferative effect (cell proliferation, luminescence) ([6]; 0.2 μM): 92 % UTC; Antiproliferative effect (cell proliferation, luminescence) ([6]; 1 μM): 75 % UTC; Antiproliferative effect (cell proliferation, luminescence) ([6]; 5 μM): 70 % UTC
CGCCGATAAGGTACAC (cEt gapmer, phosphorothioate backbone, further chemistry not given here) [ION 792169, reference compound]	98	97	99	92	92	106	105	104	125	169	142	136	97	104	106	109	105	90	96	72	Yap1 mRNA levels in tumors, % control [7]: 74 % control; Average Tumor weight [8]: 0.85 g; Average Tumor Volume ([8]; day 10 post-implantation): 123 mm^3; Average Tumor Volume ([8]; day 13 post-implantation): 262 mm^3; Average Tumor Volume ([8]; day 17 post-implantation): 367 mm^3; Average Tumor Volume ([8]; day 21 post-implantation): 531 mm^3; Average Tumor Volume ([8]; day 24 post-implantation): 774 mm^3; Average Tumor Volume ([8]; day 27 post-implantation): 805 mm^3; Average Tumor Volume ([8]; day 31 post-implantation): 962 mm^3; Average Tumor Volume ([8]; day 34 post-implantation): 1057 mm^3; Average Tumor Volume ([8]; day 38 post-implantation): 1171 mm^3; Average Tumor Volume ([8]; day 40 post-implantation): 1160 mm^3; Average Tumor Volume ([8]; day 44 post-implantation): 1069 mm^3; Antiproliferative effect (cell proliferation, luminescence) ([6]; 0.04 μM): 100 % UTC; Antiproliferative effect (cell proliferation, luminescence) ([6]; 0.2 μM): 104 % UTC; Antiproliferative effect (cell proliferation, luminescence) ([6]; 1 μM): 99 % UTC; Antiproliferative effect (cell proliferation, luminescence) ([6]; 5 μM): 93 % UTC
1198728 (TATTAGAGTATGTGGC; modified gapmer, further chemistry not given here) [compound 1198728]	–	–	–	–	–	–	–	–	–	–	–	–	–	–	–	–	–	–	–	–	Yap1 mRNA levels in tumors, % control [7]: 40 % control; Average Tumor weight [8]: 0.88 g; Average Tumor Volume ([8]; day 10 post-implantation): 113 mm^3; Average Tumor Volume ([8]; day 13 post-implantation): 253 mm^3; Average Tumor Volume ([8]; day 17 post-implantation): 423 mm^3; Average Tumor Volume ([8]; day 21 post-implantation): 621 mm^3; Average Tumor Volume ([8]; day 24 post-implantation): 835 mm^3; Average Tumor Volume ([8]; day 27 post-implantation): 988 mm^3; Average Tumor Volume ([8]; day 31 post-implantation): 1123 mm^3; Average Tumor Volume ([8]; day 34 post-implantation): 1233 mm^3; Average Tumor Volume ([8]; day 38 post-implantation): 1239 mm^3; Average Tumor Volume ([8]; day 40 post-implantation): 1277 mm^3; Average Tumor Volume ([8]; day 44 post-implantation): 1277 mm^3
